From PubChem BioAssay AID1996
Converted amounts (≈) assume the structure as drawn.

Settings: buffer; pH 7.4; 200.0 µM

SMILES	solubility kinetic [µg/mL]
Cc1nc2ccc(NC(=O)C3=NN(C)C(=O)CC3)cc2s1	> 45.4
COc1ccc2nc(C)c3c(c2c1)OC(C(C)(Cl)Br)C3 (stereo not drawn)	4 (≈ 11.2 µM)
COc1ccc(-c2nc(C)sc2CC(=O)O)cc1OC	42 (≈ 143 µM)
CN1CCN2c3ccccc3Cc3ccccc3C2C1.Cl (stereo not drawn)	> 45.1
CCN(CC)C(=O)Cc1ccccc1	> 28.7
COCCCNC(=O)/C(C#N)=C/c1cc(C)[nH]c1C	> 39.2
CC(NC(=O)c1ccccc1Cl)C1CC2CCC1C2 (stereo not drawn)	19.7 (≈ 70.9 µM)
Cc1cc(/C=N/NC(N)=O)c(C)n1C1CCCCC1	> 39.4
CC1CN(C(=O)/C=C/c2ccccc2Cl)CC(C)O1 (stereo not drawn)	36.5 (≈ 130 µM)
CCN1CCN(c2ccc(NC(=O)c3ccco3)cc2)CC1	40.2 (≈ 134 µM)
Cl.N#C/C(=C\c1ccccc1)C(=O)NCCN1CCOCC1	> 48.3
O=C(CN1C(=O)NC2(CCCCC2)C1=O)NCc1ccc2c(c1)OCO2	42.8 (≈ 119 µM)
N#CCc1nc2ccccc2c(=O)[nH]1	> 27.8
COc1ccccc1OCC(=O)O/N=C(\N)c1ccccn1	> 45.2
Cc1cccc2c1N(CCOc1ccccc1)C(=O)C2=O	3.4 (≈ 12.1 µM)
COCCNC(=O)C(C)OC(=O)C1=Cc2ccccc2OC1 (stereo not drawn)	> 45.8
COc1cccc(CC(=O)OCC(=O)NC2CCCCCC2)c1	> 47.9
CC(C)[C@H](NC(=O)c1ccccc1F)C(=O)OCC(=O)Nc1sccc1C(N)=O	> 63.2
Cc1cccc(C)c1N(CC(=O)N1CCCC1)S(C)(=O)=O	35.2 (≈ 113 µM)
O=C(O)c1sccc1S(=O)(=O)N1CCOCC1	> 41.6
COc1ccc(S(=O)(=O)NC2CC(C)(C)NC(C)(C)C2)cc1	> 49
Cc1cc(-c2ccccc2)n2ncnc2n1	> 31.5
O=C(O)C(Cc1ccccc1)N1C(=O)CCC1=O (stereo not drawn)	> 37.1
Cc1ccc(NC(=S)NCc2ccccc2)c(C)c1	39.2 (≈ 145 µM)
O=[N+]([O-])c1cc(C(F)(F)F)ccc1NCC1CCCO1 (stereo not drawn)	0.6 (≈ 2.07 µM)

SMILES	solubility kinetic [µg/mL]
Cn1cccc1C(=O)OCC(=O)Nc1sccc1C#N	4.2 (≈ 14.5 µM)
Cc1cccc(C)c1NC(=O)CNC(=O)c1cnccn1	> 42.6
Cc1ccccc1/C=C1\C(=O)Nc2ccc(F)cc21	0.9 (≈ 3.55 µM)
CCN1CCN(C(=S)NC(=O)c2cccc(Br)c2)CC1	> 53.4
O=C(Nc1ccc(Cl)c([N+](=O)[O-])c1)c1ccco1	10.6 (≈ 39.8 µM)
OC1(CC#CCN2CCCCC2)c2ccccc2-c2ccccc21	42.2 (≈ 133 µM)
CCCOc1ccc(/C=C/C(=O)N2CCOCC2)cc1	> 41.3
Cc1occc1C(=O)N1CCCC(Nc2ccc(F)c(F)c2)C1 (stereo not drawn)	46.6 (≈ 145 µM)
Fc1ccc(F)c(NC2=NCCCCC2)c1	> 33.6
COc1ccc(C(=O)NCCNc2ccc([N+](=O)[O-])cn2)cc1	16.4 (≈ 51.8 µM)
O=C(COc1cccc(F)c1)Nc1nc(-c2cccnc2)cs1	7.3 (≈ 22.2 µM)
CC(OC(=O)c1cccnc1Cl)C(=O)Nc1ccc2c(c1)OCO2 (stereo not drawn)	> 52.3
C=CC(=O)NC(NC(=O)C=C)c1ccccc1F	> 37.2
O=CNCCCc1nc2ccccc2n1CCc1ccccc1	> 46.1
COc1ccc(CN2C(=O)C(C)Oc3ccccc32)cc1 (stereo not drawn)	23.4 (≈ 82.6 µM)
CCOC(=O)c1c(C)c2c(=O)[nH]cnc2n1-c1ccccc1	2.2 (≈ 7.4 µM)
CC(=O)N[C@H]1C(O)O[C@H](CO)[C@@H](O)[C@@H]1O (stereo partly drawn)	> 33.2
O=C(COc1ccc2ccccc2c1)Nc1ccncc1	6.1 (≈ 21.9 µM)
CN(C)c1cccc(C(=O)NCCCn2ccc3ccccc32)c1	23 (≈ 71.6 µM)
Cc1ccc(-n2cnc(N)c2C(=O)c2cccc([N+](=O)[O-])c2)cc1	16.6 (≈ 51.5 µM)
Cc1ccc(CC(=O)NCC(O)c2ccccc2)cc1 (stereo not drawn)	33.4 (≈ 124 µM)
Cc1oc2c(CN3CCCC(C)C3)c(O)ccc2c(=O)c1-c1ccccc1 (stereo not drawn)	> 54.5
O=Cc1cnc(N2CCCCC2)s1	27.6 (≈ 141 µM)
O=C(NCC1CCCO1)c1ccc([N+](=O)[O-])o1 (stereo not drawn)	> 36
O=C(CCc1c[nH]c2ccccc12)NCCOc1ccccc1	43.7 (≈ 142 µM)

SMILES	solubility kinetic [µg/mL]
O=C(/C=C/c1ccc(O)c([N+](=O)[O-])c1)c1ccc2ccccc2c1	1.8 (≈ 5.64 µM)
COc1ccccc1-n1c(SCC(=O)O)nc2sc3c(c2c1=O)CCC3	41.8 (≈ 108 µM)
O=C(CNC(=O)COc1ccccc1)NCCc1ccccn1	> 47
CC(=Nc1ccc(F)cc1)c1c(O)n(C)c(=O)[nH]c1=O	7 (≈ 25.2 µM)
CC(C)CCNc1nc2ccccc2nc1NS(=O)(=O)c1cccs1	7.3 (≈ 19.4 µM)
O=[N+]([O-])C(/C=C(/Cl)[N+](=O)[O-])=C(N1CCCCC1)N1CCCCC1	29.1 (≈ 84.4 µM)
CCOC(=O)N1CCN(C(=O)c2ccc(OCC)cc2)CC1	> 46
O=C(NCc1ccco1)/C(=C/c1ccc(Cl)cc1)NC(=O)c1ccco1	4 (≈ 10.8 µM)
O=C(CSc1nnc(-c2ccccc2F)o1)NC1CC1	> 44
COc1nc(C)cc(C)c1S(=O)(=O)c1ccc(Cl)cc1	1.7 (≈ 5.45 µM)
CC(C)CNP(=S)(c1ccccc1)C(C)(C)C (stereo not drawn)	1.7 (≈ 6.31 µM)
Cc1ccc(C(=O)NCC(=O)Nc2ccc3c(c2)CCC3)cc1C	2.6 (≈ 8.06 µM)
CCCOc1ccc(CN2CCOCC2)cc1OC.Cl	> 45.3
Cc1cccc(-c2noc(CCC(=O)NC3CCCC3)n2)c1	> 44.9
Cc1cc(=O)n(C)c2ccccc12	> 26
COc1ccc(/C=C/C(=O)OCC(=O)N2CCCC2)c(OC)c1	> 47.9
CNC(=O)CSc1nnc(-c2ccc3c(c2)OCO3)n1C	> 46
CCCCOc1ccc(C(=O)CCN2CCCCC2)cc1.Cl	> 48.9
COC(=O)c1cc(S(=O)(=O)N2CCCC(C)C2)c[nH]1 (stereo not drawn)	> 43
COc1ccc(NC(=O)CC(C)CC(=O)NCc2ccccc2)c(OC)c1 (stereo not drawn)	5 (≈ 13.5 µM)
COc1cccc(C(=O)N2CCN=C2SC)c1	35.1 (≈ 140 µM)
COc1cccc(NC(=S)N2CCC(Cc3ccccc3)CC2)c1	5.5 (≈ 16.2 µM)
CC(=O)NC(C)(CC(=O)c1ccccc1)c1ccccc1 (stereo not drawn)	> 42.2
CCc1sc(NC(=O)CN2CCC(C(N)=O)CC2)nc1-c1ccccc1	> 55.9
O=C(CCN1C(=O)c2ccccc2C1=O)Nc1cccc(O)c1	> 46.5

SMILES	solubility kinetic [µg/mL]
O=C(O)C(=O)O.Oc1ccccc1CNCCCN1CCOCC1	41.5
CCC(=O)Nc1ccc(-c2ccc(NC(=O)CC)c(OC)c2)cc1OC	7.1 (≈ 19.9 µM)
Cn1ccs/c1=N\C(=O)Nc1cccc(C(F)(F)F)c1	> 45.2
O=c1oc2ccccc2c(Nc2ccc(Cl)cc2)c1[N+](=O)[O-]	0.9 (≈ 2.84 µM)
CCCOc1ccc(C(=O)OCCN(CC)CC)cc1N.Cl	> 49.6
CC1CN(C(=O)CSc2nc(N)cc(N)n2)CC(C)O1 (stereo not drawn)	> 44.6
COc1ccc(Cl)cc1NC(=S)NCCO	> 39.1
C=CCSc1nc(C)cc(C(=O)OCC)c1C#N	8.6 (≈ 32.8 µM)
CCCC(=O)N/C(N)=N/c1nc(C)c2cc(C)ccc2n1	8.5 (≈ 29.8 µM)
O=c1oc(-c2ccc(Br)cc2)nc2ccccc12	< 0.6
Cn1cc(SCC(=O)NC2CCCC2)c2ccccc21	> 43.3
CCN(CC)c1ccc(C(=O)c2cnc(/N=C/N(C)C)s2)cc1	48.6 (≈ 147 µM)
CCn1c(OC)nc2c1c(=O)n(C)c(=O)n2C	> 35.7
NC(CO)(CO)COCc1ccccc1	> 31.7
Cc1noc(C)c1COC(=O)CNC(=O)c1ccc(Cl)cc1	> 48.4
Cc1cccc(C)c1OCCCCN1CCCCC1.O=C(O)C(=O)O	45.4
Cc1ccc(NC(=O)CCc2nc3ccccc3[nH]2)cc1C	0.3 (≈ 1.02 µM)
COc1ccc(C(=O)NCCc2nc3cc([N+](=O)[O-])ccc3n2C)cc1	2.5 (≈ 7.05 µM)
C=C(C)n1c(=O)n(Cc2ccc(C)cc2)c2ccccc21	16.3 (≈ 58.6 µM)
O=C(NCc1ccccn1)Nc1ccc(F)c(Cl)c1	> 42
Cn1cnc(NCc2ccccc2)c1[N+](=O)[O-]	1.2 (≈ 5.17 µM)
COc1ccccc1CNC(=O)c1sccc1C	26.6 (≈ 102 µM)
Cc1ccc(C(=O)Oc2ccc(C(=S)N3CCOCC3)cc2)cc1	2.5 (≈ 7.32 µM)
NS(=O)(=O)c1ccc(CCNC(=S)NC(=O)c2ccccc2Br)cc1	3.3 (≈ 7.46 µM)
O=C1CCc2ccc(NC(=O)C3CC3)cc2N1	> 34.5

SMILES	solubility kinetic [µg/mL]
NS(=O)(=O)c1cccc(NC(=O)CC2(CC(=O)O)CCCC2)c1	41.7 (≈ 123 µM)
COc1ccc(-n2c(O)c(C=NCCN(C)C)c(=O)[nH]c2=O)cc1	> 49.9
Cc1cccc(S(=O)(=O)NC2CCCCCCC2)c1	25.2 (≈ 89.5 µM)
Cc1cc(C(=O)N2CCc3ccccc3C2)no1	> 36.3
O=C(COC(=O)Cc1ccccc1F)NCc1ccc(Cl)cc1	17.5 (≈ 52.1 µM)
O=S(=O)(c1ccc(Cl)nc1)N1CCc2ccccc21	24.9 (≈ 84.5 µM)
Cc1ccc(S(=O)(=O)N2CCCC(C)C2)cc1 (stereo not drawn)	21.3 (≈ 84.1 µM)
CNC(=O)CSc1nc2cccnc2n1-c1ccc(F)cc1	44.7 (≈ 141 µM)
Cc1cc(NC(=O)NC(=O)c2ccccc2F)no1	3 (≈ 11.4 µM)
Cc1onc(-c2c(F)cccc2Cl)c1C(O)c1ccc(F)cc1 (stereo not drawn)	> 50.4
O=C(NCCCn1ccnc1)C(=O)NC1CCCCC1	> 41.8
COc1nc(NC2CCCCC2)nc(NC(C)(C)C)n1	20.7 (≈ 74.1 µM)
O=C(NNC(=S)NC(=O)c1ccccc1)c1cccnc1	> 45.1
O=C(/C=C/C=C/c1ccccc1)CC1(O)C(=O)Nc2ccccc21 (stereo not drawn)	> 47.9
COc1cc(C=O)ccc1OCC(=O)Nc1ccc2c(c1)OCO2	7.6 (≈ 23.1 µM)
Cc1cc(C)cc(NS(=O)(=O)c2cccs2)c1	> 40.1
COc1ccc(CNc2ncnc3c2[nH]c2ccccc23)cc1	0.2 (≈ 0.657 µM)
O=c1c2ccccc2nc(-c2ccccc2)n1-c1ccccc1	43.6 (≈ 146 µM)
CCCCN(C)CCNC(=O)C(NC(=O)C1CCC(C)CC1)C(C)C (stereo not drawn)	> 53
COc1ccc(/C=C/C(=O)NCCSCc2ccco2)cc1OC	41.9 (≈ 121 µM)
COc1cccc(CN2CCCCC2C(=O)O)c1 (stereo not drawn)	> 37.4
O=C(O)c1ccccc1NC(=O)c1ccccc1-c1ccccc1C(=O)O	> 54.2
O=C(CC1OCC2CCCN2C1=O)Nc1ccc([N+](=O)[O-])cc1 (stereo not drawn)	45.5 (≈ 142 µM)
